Measured values: PubChem BioAssay AID248 (DTP/NCI, 2004)
Several values for one entry are separate records, joined by “and”; a condition that tells them apart may be missing. Equal values may be shown once. Inconclusive results and toxic doses are left out.

Tested on: L1210 leukemia ip in BDF1 mice, survival T/C
Test: NCI In Vivo Anticancer Drug Screen. Data for tumor model L1210 Leukemia (intraperitoneal) in B6D2F1 (BDF1) mice
Settings: endpoint: mean survival time, higher = longer survival
Method in brief: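 Antitumor effect is assessed in tumor-bearing animals. Survival in the compound arm is compared with a vehicle-dosed control arm and expressed as their quotient.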

[1] = dose: 100.0 mg/kg/injection, schedule: Q01DX001 (ip), vehicle: saline
[2] = dose: 200.0 mg/kg/injection, schedule: Q01DX001 (ip), vehicle: saline
[3] = dose: 400.0 mg/kg/injection, schedule: Q01DX001 (ip), vehicle: saline
[4] = dose: 100.0 mg/kg/injection, schedule: Q01DX001 (ip), vehicle: Klucel (hydroxypropylcellulose) (HPC)
[5] = dose: 200.0 mg/kg/injection, schedule: Q01DX001 (ip), vehicle: Klucel (hydroxypropylcellulose) (HPC)
[6] = dose: 400.0 mg/kg/injection, schedule: Q01DX001 (ip), vehicle: Klucel (hydroxypropylcellulose) (HPC)

For `NC(=S)/C(N)=N/Nc1ccc(Cl)cc1`, the T/C (dose: 12.5 mg/kg/injection, schedule: Q01DX009 (ip), vehicle: saline with Tween-80) was 92 % of control, the T/C (dose: 12.5 mg/kg/injection, schedule: Q01DX009 (ip), vehicle: saline) was 108 % of control and the T/C (dose: 25.0 mg/kg/injection, schedule: Q01DX009 (ip), vehicle: saline with Tween-80) was 92 % of control. For the same compound, the T/C (dose: 25.0 mg/kg/injection, schedule: Q01DX009 (ip), vehicle: saline) was 120 % of control and the T/C (dose: 50.0 mg/kg/injection, schedule: Q01DX009 (ip), vehicle: saline) was 103 % of control.
With `O=[N+]([O-])c1cc2cnn(CCl)c2cc1[N+](=O)[O-]` the T/C [1] was 103 % of control, the T/C [2] was 111 % of control and the T/C [3] was 109 % of control.
`CCCCCCCCCCCCCOc1ccc2ccccc2c1` was tested, and the T/C [4] was 326 % of control, the T/C [5] was 165 % of control and the T/C [6] was 92 % of control.
With `Nc1nc2c(nc([Se])n2C2OC(CO)C(O)C2O)c(=O)[nH]1` (stereo unspecified) the T/C (dose: 100.0 mg/kg/injection, schedule: Q01DX005 (ip), vehicle: saline) was 98 % of control and the T/C (dose: 200.0 mg/kg/injection, schedule: Q01DX005 (ip), vehicle: saline) was 98 % of control.
`CCCCCCCCCCCCCSCCCCCCCCCCCCSCCCCCCCCCCCC` was tested, and the T/C [4] was 89 % of control, the T/C [5] was 88 % of control and the T/C [6] was 89 % of control.
In the case of `CCOc1ccc2ccsc2c1`, the T/C [1] is reported as 98 % of control, the T/C [2] is reported as 98 % of control and the T/C [3] is reported as 96 % of control.
In the case of `O=S(=O)(Cl)CCCBr`, the T/C (dose: 100.0 mg/kg/injection, schedule: Q01DX009 (ip), vehicle: saline sonified) is reported as 93 % of control and the T/C (dose: 200.0 mg/kg/injection, schedule: Q01DX009 (ip), vehicle: saline sonified) is reported as 86 % of control.
In the case of `Cc1c(NC(=O)OCc2ccccc2)no[n+]1[O-]`, the T/C (dose: 100.0 mg/kg/injection, schedule: Q04DX002 (ip), vehicle: saline) is reported as 102 % of control, the T/C (dose: 200.0 mg/kg/injection, schedule: Q04DX002 (ip), vehicle: saline) is reported as 98 % of control and the T/C (dose: 400.0 mg/kg/injection, schedule: Q04DX002 (ip), vehicle: saline) is reported as 98 % of control.
In the case of `COc1cc2cc3c4cc(OC)c(OC)cc4cc[n+]3c(/C=C/c3cccc([N+](=O)[O-])c3)c2cc1OC`, the T/C (dose: 100.0 mg/kg/injection, schedule: Q04DX002 (ip), vehicle: carboxymethylcellulose (CMC)) is reported as 113 % of control, the T/C (dose: 100.0 mg/kg/injection, schedule: Q04DX002 (ip), vehicle: other) is reported as 97 % of control and 105 % of control and 109 % of control and the T/C (dose: 100.0 mg/kg/injection, schedule: Q04DX003 (ip), vehicle: other) is reported as 107 % of control. The T/C (dose: 200.0 mg/kg/injection, schedule: Q04DX002 (ip), vehicle: carboxymethylcellulose (CMC)) was 109 % of control, the T/C (dose: 200.0 mg/kg/injection, schedule: Q04DX002 (ip), vehicle: other) was 94 % of control and 104 % of control and 123 % of control and the T/C (dose: 200.0 mg/kg/injection, schedule: Q04DX003 (ip), vehicle: other) was 119 % of control. For the same compound, the T/C (dose: 400.0 mg/kg/injection, schedule: Q04DX002 (ip), vehicle: carboxymethylcellulose (CMC)) was 109 % of control, the T/C (dose: 400.0 mg/kg/injection, schedule: Q04DX002 (ip), vehicle: other) was 108 % of control and 119 % of control and the T/C (dose: 400.0 mg/kg/injection, schedule: Q04DX003 (ip), vehicle: other) was 105 % of control. The T/C (dose: 800.0 mg/kg/injection, schedule: Q04DX002 (ip), vehicle: other) was 112 % of control.
With `c1c[nH]c(N=Nc2ccc(N=Nc3ncc[nH]3)cc2)n1` the T/C (dose: 50.0 mg/kg/injection, schedule: Q01DX009 (ip), vehicle: saline with Tween-80) was 100 % of control, the T/C (dose: 100.0 mg/kg/injection, schedule: Q01DX009 (ip), vehicle: saline with Tween-80) was 94 % of control and the T/C (dose: 200.0 mg/kg/injection, schedule: Q01DX009 (ip), vehicle: saline with Tween-80) was 94 % of control.
With `[I][Hg][CH2]C1COCC([CH2][Hg][I])O1.[I][Hg][CH2]C1COCC([CH2][Hg][I])O1` (stereo unspecified) the T/C (dose: 20.0 mg/kg/injection, schedule: Q04DX003 (ip), vehicle: carboxymethylcellulose (CMC)) was 100 % of control, the T/C (dose: 40.0 mg/kg/injection, schedule: Q01DX001 (ip), vehicle: carboxymethylcellulose (CMC)) was 91 % of control and the T/C (dose: 40.0 mg/kg/injection, schedule: Q04DX003 (ip), vehicle: carboxymethylcellulose (CMC)) was 105 % of control. For the same compound, the T/C (dose: 80.0 mg/kg/injection, schedule: Q01DX001 (ip), vehicle: carboxymethylcellulose (CMC)) was 93 % of control.
